Columns and labels:
Format in all cases: cell-based
E. coli DH5α = assay: Antibacterial activity: MIC and growth curve against E. coli DH5α in 96-well plate; conditions: minimal inhibitory concentration against E. coli DH5α; 96-well plate, 5×10^5 CFU/mL, 37° C., judged after 8 h
Method in brief: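 MIC taken as lowest protein level with no bacterial growth, tracked by A600 every 30 min during 37 °C, 175 rpm culture. Two-fold protein series 50-12.5 μg/mL final, triplicate wells, against 5×10^5 CFU/mL of LB-washed mid-log cells.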

E. coli BL21 = assay: MIC against Gram-negative bacteria: E. coli BL21; conditions: E. coli BL21; for MIC against E. coli BL21 / MIC (μg/mL) E. coli BL21: 5×10^5 CFU/mL
Method in brief: (§1)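 Read-out is absence of bacterial growth, with MIC set at the lowest recombinant protein concentration achieving it. Bacteria, pre-grown in LB to McFarland 0.5 and resuspended, were exposed at 5×10^5 CFU/mL to two-fold diluted human EGF domain proteins in triplicate at 37° C, 175 rpm.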

Pseudomonas aeruginosa = assay: MIC against Gram-negative bacteria: Pseudomonas aeruginosa; conditions: for MIC against P. aeruginosa / MIC (μg/mL) P. aeruginosa: 5×10^5 CFU/mL
Method in brief: as §1

Klebsiella pneumonia = assay: MIC against Gram-negative bacteria: Klebsiella pneumonia; conditions: for MIC against K. pneumonia / MIC (μg/mL) K. pneumonia: 5×10^5 CFU/mL
Method in brief: as §1

Enterobacter cloacae = assay: MIC against Gram-negative bacteria: Enterobacter cloacae; conditions: for MIC against E. cloacae / MIC (μg/mL) E. cloacae: 5×10^5 CFU/mL
Method in brief: as §1

Aeromonas hydrophila = assay: MIC against Gram-negative bacteria: Aeromonas hydrophila; conditions: for MIC against A. hydrophila / MIC (μg/mL) A. hydrophila: 5×10^5 CFU/mL
Method in brief: as §1

Citrobacter diversus = assay: MIC against Gram-negative bacteria: Citrobacter diversus; conditions: for MIC against C. diversus / MIC (μg/mL) C. diversus: 5×10^5 CFU/mL
Method in brief: as §1

Moraxella catarrhalis = assay: MIC against Gram-negative bacteria: Moraxella catarrhalis; conditions: for MIC against M. catarrhalis / MIC (μg/mL) M. catarrhalis: 5×10^5 CFU/mL
Method in brief: as §1

Proteus mirabilis = assay: MIC against Gram-negative bacteria: Proteus mirabilis; conditions: for MIC against P. mirabilis / MIC (μg/mL) P. mirabilis: 5×10^5 CFU/mL
Method in brief: as §1

Proteus vulgaris = assay: MIC against Gram-negative bacteria: Proteus vulgaris; conditions: for MIC against P. vulgaris / MIC (μg/mL) P. vulgaris: 5×10^5 CFU/mL
Method in brief: as §1

Serratia marcescens = assay: MIC against Gram-negative bacteria: Serratia marcescens; conditions: for MIC against S. marcescens / MIC (μg/mL) S. marcescens: 5×10^5 CFU/mL
Method in brief: as §1

[1] = Pseudomonas aeruginosa, 96-well plate, 37° C., 10 h
[2] = Klebsiella pneumonia, 96-well plate, 37° C., 10 h
[3] = Enterobacter cloacae, 96-well plate, 37° C., 10 h
[4] = Aeromonas hydrophila, 96-well plate, 37° C., 10 h
[5] = Citrobacter diversus, 96-well plate, 37° C., 10 h
[6] = Moraxella catarrhalis, 96-well plate, 37° C., 10 h
[7] = Proteus mirabilis, 96-well plate, 37° C., 10 h
[8] = Proteus vulgaris, 96-well plate, 37° C., 10 h
[9] = Serratia marcescens, 96-well plate, 37° C., 10 h
[10] = P. aeruginosa, 10 h cultivation at 37° C.
[11] = K. pneumonia, 10 h cultivation at 37° C.
[12] = E. cloacae, 10 h cultivation at 37° C.
[13] = A. hydrophila, 10 h cultivation at 37° C.
[14] = C. diversus, 10 h cultivation at 37° C.
[15] = M. catarrhalis, 10 h cultivation at 37° C.
[16] = P. mirabilis, 10 h cultivation at 37° C.
[17] = P. vulgaris, 10 h cultivation at 37° C.
[18] = S. marcescens, 10 h cultivation at 37° C.
[19] = Pseudomonas aeruginosa, 10 h cultivation at 37° C.
[20] = Klebsiella pneumonia, 10 h cultivation at 37° C.
[21] = Enterobacter cloacae, 10 h cultivation at 37° C.
[22] = Aeromonas hydrophila, 10 h cultivation at 37° C.
[23] = Citrobacter diversus, 10 h cultivation at 37° C.
[24] = Moraxella catarrhalis, 10 h cultivation at 37° C.
[25] = Proteus mirabilis, 10 h cultivation at 37° C.
[26] = Proteus vulgaris, 10 h cultivation at 37° C.
[27] = Serratia marcescens, 10 h cultivation at 37° C.

PRT1276 (LTCNYGNGGCQHTCDDTEQGPRCGCHIKFVLHTDGKTCI; listed as Homo sapiens)
MIC (E. coli DH5α): 50 mg/L | MIC against E. coli BL21 (E. coli BL21; 96-well plate, 37° C., 10 h): 12.5 mg/L | MIC against P. aeruginosa (Pseudomonas aeruginosa; [1]): 50 mg/L | MIC against K. pneumonia (Klebsiella pneumonia; [2]): 12.5 mg/L | MIC against E. cloacae (Enterobacter cloacae; [3]): 50 mg/L | MIC against A. hydrophila (Aeromonas hydrophila; [4]): 12.5 mg/L | MIC against C. diversus (Citrobacter diversus; [5]): 50 mg/L | MIC against M. catarrhalis (Moraxella catarrhalis; [6]): 12.5 mg/L | MIC against P. mirabilis (Proteus mirabilis; [7]): 50 mg/L | MIC against P. vulgaris (Proteus vulgaris; [8]): 12.5 mg/L | MIC against S. marcescens (Serratia marcescens; [9]): 50 mg/L

PRT95 (DINECETGQHNCVPNSVCINTRGSFQCGPCQPGFVGDQASGCQ; listed as Homo sapiens)
MIC (E. coli DH5α): 25 mg/L | MIC (μg/mL) E. coli BL21 (E. coli BL21; 96-well plate, 37° C., 10 h): 12.5 µg/mL | MIC (μg/mL) P. aeruginosa (Pseudomonas aeruginosa; [1]): 50 µg/mL | MIC (μg/mL) K. pneumonia (Klebsiella pneumonia; [2]): 12.5 µg/mL | MIC (μg/mL) E. cloacae (Enterobacter cloacae; [3]): 50 µg/mL | MIC (μg/mL) A. hydrophila (Aeromonas hydrophila; [4]): 12.5 µg/mL | MIC (μg/mL) C. diversus (Citrobacter diversus; [5]): 50 µg/mL | MIC (μg/mL) M. catarrhalis (Moraxella catarrhalis; [6]): 12.5 µg/mL | MIC (μg/mL) P. mirabilis (Proteus mirabilis; [7]): 25 µg/mL | MIC (μg/mL) P. vulgaris (Proteus vulgaris; [8]): 50 µg/mL | MIC (μg/mL) S. marcescens (Serratia marcescens; [9]): 25 µg/mL

PRT969 (LLSPCTPNPCEHGGRCESAPGQLPVCSCPQGWQGPRCQ; listed as Homo sapiens)
MIC (E. coli DH5α): 50 mg/L | MIC (E. coli BL21; 10 h cultivation at 37° C.): 12.5 mg/L | MIC (Pseudomonas aeruginosa; [10]): 25 mg/L | MIC (Klebsiella pneumonia; [11]): 50 mg/L | MIC (Enterobacter cloacae; [12]): 25 mg/L | MIC (Aeromonas hydrophila; [13]): 25 mg/L | MIC (Citrobacter diversus; [14]): 12.5 mg/L | MIC (Moraxella catarrhalis; [15]): 25 mg/L | MIC (Proteus mirabilis; [16]): 50 mg/L | MIC (Proteus vulgaris; [17]): 25 mg/L | MIC (Serratia marcescens; [18]): 12.5 mg/L

PRT946 (EVDECQNQPCQNGGTCIDLVNHFKCSCPPGTRGLLCE; listed as Homo sapiens)
MIC (E. coli DH5α): 50 mg/L | MIC (E. coli BL21; 10 h cultivation at 37° C.): 12.5 mg/L | MIC (Pseudomonas aeruginosa; [10]): 50 mg/L | MIC (Klebsiella pneumonia; [11]): 12.5 mg/L | MIC (Enterobacter cloacae; [12]): 50 mg/L | MIC (Aeromonas hydrophila; [13]): 25 mg/L | MIC (Citrobacter diversus; [14]): 12.5 mg/L | MIC (Moraxella catarrhalis; [15]): 50 mg/L | MIC (Proteus mirabilis; [16]): 25 mg/L | MIC (Proteus vulgaris; [17]): 12.5 mg/L | MIC (Serratia marcescens; [18]): 50 mg/L

PRT1403 (SVVECPRNCHGNGECVSGTCHCFPGFLGPDCS; listed as Homo sapiens)
MIC (E. coli DH5α): 50 mg/L | MIC against E. coli BL21 (E. coli BL21; 10 h cultivation at 37° C.): 12.5 mg/L | MIC against P. aeruginosa (Pseudomonas aeruginosa; [19]): 50 mg/L | MIC against K. pneumonia (Klebsiella pneumonia; [20]): 12.5 mg/L | MIC against E. cloacae (Enterobacter cloacae; [21]): 25 mg/L | MIC against A. hydrophila (Aeromonas hydrophila; [22]): 25 mg/L | MIC against C. diversus (Citrobacter diversus; [23]): 50 mg/L | MIC against M. catarrhalis (Moraxella catarrhalis; [24]): 12.5 mg/L | MIC against P. mirabilis (Proteus mirabilis; [25]): 50 mg/L | MIC against P. vulgaris (Proteus vulgaris; [26]): 12.5 mg/L | MIC against S. marcescens (Serratia marcescens; [27]): 50 mg/L

PRT1462 (CQCNLHGSVNKFCNPHSGQCECKKEAKGLQCDTCRENFYGLDVTNCKA; listed as Homo sapiens)
MIC (E. coli DH5α): 12.5 mg/L | MIC against E. coli BL21 (E. coli BL21; 10 h cultivation at 37° C.): 25 mg/L | MIC against P. aeruginosa (Pseudomonas aeruginosa; [19]): 100 mg/L | MIC against K. pneumonia (Klebsiella pneumonia; [20]): 12.5 mg/L | MIC against E. cloacae (Enterobacter cloacae; [21]): 12.5 mg/L | MIC against A. hydrophila (Aeromonas hydrophila; [22]): 12.5 mg/L | MIC against C. diversus (Citrobacter diversus; [23]): 25 mg/L | MIC against M. catarrhalis (Moraxella catarrhalis; [24]): 12.5 mg/L | MIC against P. mirabilis (Proteus mirabilis; [25]): 25 mg/L | MIC against P. vulgaris (Proteus vulgaris; [26]): 12.5 mg/L | MIC against S. marcescens (Serratia marcescens; [27]): 25 mg/L

PRT873 (CECYGHSNRCSYIDFLNVVTCVSCKHNTRGQHCQHCRLGYYRNGSAELDDENVCIE; listed as Homo sapiens)
MIC (E. coli DH5α): 12.5 mg/L | MIC (μg/mL) E. coli BL21 (E. coli BL21; 10 h cultivation at 37° C.): 50 µg/mL | MIC (μg/mL) P. aeruginosa (Pseudomonas aeruginosa; [10]): 12.5 µg/mL | MIC (μg/mL) K. pneumonia (Klebsiella pneumonia; [11]): 25 µg/mL | MIC (μg/mL) E. cloacae (Enterobacter cloacae; [12]): 25 µg/mL | MIC (μg/mL) A. hydrophila (Aeromonas hydrophila; [13]): 50 µg/mL | MIC (μg/mL) C. diversus (Citrobacter diversus; [14]): 25 µg/mL | MIC (μg/mL) M. catarrhalis (Moraxella catarrhalis; [15]): 12.5 µg/mL | MIC (μg/mL) P. mirabilis (Proteus mirabilis; [16]): 25 µg/mL | MIC (μg/mL) P. vulgaris (Proteus vulgaris; [17]): 50 µg/mL | MIC (μg/mL) S. marcescens (Serratia marcescens; [18]): 12.5 µg/mL

PRT1483 (DIDECVTSSCEGHCVNTEGGFVCECGPGMQLSADRHSCQ; listed as Homo sapiens)
MIC (E. coli DH5α): 12.5 mg/L | MIC against E. coli BL21 (E. coli BL21; 10 h cultivation at 37° C.): 25 mg/L | MIC against P. aeruginosa (Pseudomonas aeruginosa; [19]): 50 mg/L | MIC against K. pneumonia (Klebsiella pneumonia; [20]): 25 mg/L | MIC against E. cloacae (Enterobacter cloacae; [21]): 12.5 mg/L | MIC against A. hydrophila (Aeromonas hydrophila; [22]): 25 mg/L | MIC against C. diversus (Citrobacter diversus; [23]): 50 mg/L | MIC against M. catarrhalis (Moraxella catarrhalis; [24]): 25 mg/L | MIC against P. mirabilis (Proteus mirabilis; [25]): 12.5 mg/L | MIC against P. vulgaris (Proteus vulgaris; [26]): 25 mg/L | MIC against S. marcescens (Serratia marcescens; [27]): 25 mg/L

PRT180 (DLDDCAGRACANGGTCVEGGGAHRCSCALGFGGRDCR; listed as Homo sapiens)
MIC (E. coli DH5α): 12.5 mg/L | MIC (μg/mL) E. coli BL21 (E. coli BL21; 10 h cultivation at 37° C.): 12.5 µg/mL | MIC (μg/mL) P. aeruginosa (Pseudomonas aeruginosa; [10]): 12.5 µg/mL | MIC (μg/mL) K. pneumonia (Klebsiella pneumonia; [11]): 12.5 µg/mL | MIC (μg/mL) E. cloacae (Enterobacter cloacae; [12]): 50 µg/mL | MIC (μg/mL) A. hydrophila (Aeromonas hydrophila; [13]): 25 µg/mL | MIC (μg/mL) C. diversus (Citrobacter diversus; [14]): 12.5 µg/mL | MIC (μg/mL) M. catarrhalis (Moraxella catarrhalis; [15]): 25 µg/mL | MIC (μg/mL) P. mirabilis (Proteus mirabilis; [16]): 50 µg/mL | MIC (μg/mL) P. vulgaris (Proteus vulgaris; [17]): 25 µg/mL | MIC (μg/mL) S. marcescens (Serratia marcescens; [18]): 12.5 µg/mL

PRT1357 (GQHSCPSDCNNLGQCVSGRCICNEGYSGEDCS; listed as Homo sapiens)
MIC (E. coli DH5α): 50 mg/L | MIC against E. coli BL21 (E. coli BL21; 10 h cultivation at 37° C.): 12.5 mg/L | MIC against P. aeruginosa (Pseudomonas aeruginosa; [19]): 25 mg/L | MIC against K. pneumonia (Klebsiella pneumonia; [20]): 50 mg/L | MIC against E. cloacae (Enterobacter cloacae; [21]): 25 mg/L | MIC against A. hydrophila (Aeromonas hydrophila; [22]): 100 mg/L | MIC against C. diversus (Citrobacter diversus; [23]): 50 mg/L | MIC against M. catarrhalis (Moraxella catarrhalis; [24]): 12.5 mg/L | MIC against P. mirabilis (Proteus mirabilis; [25]): 12.5 mg/L | MIC against P. vulgaris (Proteus vulgaris; [26]): 50 mg/L | MIC against S. marcescens (Serratia marcescens; [27]): 12.5 mg/L

Reference: patent publication US9833497B2, “Human originated EGF domain proteins and use of the same” (CHENGDU SOURCEBIO LIMITED-LIABILITY COMPANY, priority 2013, dated 2017)
